# Legend:
# [1] = tested on: MCF-10A; test: Viability (MTT) of non cancerous cells; assay type: cell-based, human; conditions: FIG. 6D
# Experimental: FIG. 6: JPH1701 (or Ohmline) activity on cell motility on cancerous MDA-MB-435s cells and on non cancerous MCF-10A cells. The motility was tested by transwell assay. Additionally, viability tests were performed using MTT assays. FIG. 6A-B) JPH1701 (the concentrations of JPH1701, for the FIG. 6A, are 0 (control condition), 10 nM, 100 nM, 300 nM and 1 μM) reduces motility (FIG. 6A) of MDA-MB-435s wild type (WT) cells from 10 nM without affecting viability (FIG. 6B) except at 10 μM. FIG. 6C-D) MCF-10A motility (FIG. 6C) and viability (FIG. 6D) are not affected by JPH1701 (the concentrations of JPH1701, for the FIG. 6C, are 0 (control condition), 10 nM, 100 nM, 300 nM and 1 μM). FIG. 6E-F) Effect on SK3 dependent motility.
# The immortalized normal mammary epithelial cell lines MCF-10A and 184A1 were cultured in DMEM/Ham's F-12, 1:1 mix containing 5% horse serum (Invitrogen Life Technologies, France), insulin (10 μg/ml), epidermal growth factor (20 ng/ml), hydrocortisone (0.5 μg/ml) and, respectively for MCF-10A and 184A1, 100 ng/ml cholera toxin and 1 ng/ml cholera toxin plus 5 μg/ml transferrin.
# [2] = target: SK3/KCa2.3 channel (Homo sapiens, UniProt Q9UGI6); test: Whole-cell patch clamp, apamin-sensitive current in MDA-MB-435s; assay type: cell-based; parameters: effect of JPH1701 on the SK3 activity in MDA-MB-435s cells using patch clamp technique; endogenous in cells; host or cells: MDA-MB-435s wild type
# Sequence of SK3/KCa2.3 channel (Q9UGI6 whole entry): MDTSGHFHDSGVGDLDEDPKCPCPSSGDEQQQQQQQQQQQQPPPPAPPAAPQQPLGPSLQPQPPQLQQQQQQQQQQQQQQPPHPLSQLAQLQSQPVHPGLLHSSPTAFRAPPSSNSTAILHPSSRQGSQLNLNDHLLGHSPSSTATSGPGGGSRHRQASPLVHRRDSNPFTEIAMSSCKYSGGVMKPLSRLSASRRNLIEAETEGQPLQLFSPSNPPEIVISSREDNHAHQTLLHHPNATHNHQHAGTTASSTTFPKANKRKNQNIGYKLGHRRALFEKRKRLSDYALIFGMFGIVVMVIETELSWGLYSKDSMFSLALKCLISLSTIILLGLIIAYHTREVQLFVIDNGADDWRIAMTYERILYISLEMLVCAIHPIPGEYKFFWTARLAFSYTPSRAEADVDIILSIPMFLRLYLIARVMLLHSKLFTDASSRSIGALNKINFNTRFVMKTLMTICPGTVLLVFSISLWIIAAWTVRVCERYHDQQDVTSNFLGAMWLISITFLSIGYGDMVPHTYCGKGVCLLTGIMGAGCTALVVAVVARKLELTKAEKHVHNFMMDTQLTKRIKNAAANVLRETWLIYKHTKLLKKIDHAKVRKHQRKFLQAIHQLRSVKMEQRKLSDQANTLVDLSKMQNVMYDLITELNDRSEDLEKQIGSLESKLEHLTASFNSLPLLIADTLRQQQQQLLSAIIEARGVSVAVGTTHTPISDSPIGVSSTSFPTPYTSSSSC
# Experimental: FIG. 7: Effects of a 24 hours application of JPH1701 at 1 μM on whole cell current in MDA-MB-435s Wild Type (WT). FIG. 7A) Illustrations of currents recorded on MDA-MD-435s. On the top, current were recorded on MDA-MB-435s in control condition. At the bottom, current were representative of a cell which was treated with JPH1701 1 μM during 24 hours. FIG. 7B) Effects of JPH1701 on apamin-sensitive currents. Cells were incubated with JHP1701 at 1 μM during 24 hours then currents were measured in absence or with apamin, a specific blocker of the SK3/KCa2.3 channel. Histograms show the amplitude of currents inhibited by apamin. After JPH1701 treatment apamin-sensitive current were abolished. […]
# Briefly, experiments were conducted using Axopatch 200B patch-clamp amplifier (Axon Instrument) and data, digitized with 1322-A Digidata converter (Axon Instrument), were stored on a computer using Clampex of pClamp 9.2 software (Axon Instru-ment). The patch-clamp data was analyzed using both Clampfit 9.2 and Origin 7.0 software (Microcal Inc., Northampton, Mass., USA).
# The pipette solution for the whole-cell recordings contained (in mM): K-glutamate 125, KCl 20, MgCl2 1, Mg-ATP 1, HEPES 10, and pH was adjusted to 7.2 with KOH and various concentrations of CaCl2 and EGTA were added to obtain calculated pCa=7 (0.37 mM CaCl2 and 10 mM EGTA) or pCa=6.4 (0.7 mM CaCl2 and 1 mM EGTA). […]
substance,measurement,setting,value
hexadecyloxy-2-O-methyl-sn-glycerol-lactose [JPH1701],Effect on cell viability of non-cancerous cells,[1],did not affected
same,Apamin-sensitive current after treatment,"[2]; 1 μM for 24 h, FIG. 7B",totally abolished
same,Apamin-sensitive current in MDA-MB-435s,"[2]; wild-type cells, residual current abolished by apamin",0.071 ± 0.215 pA/pF

# Source: patent US9161944B2, “Method for preventing cancer metastasis” (INSERM (INSTITUT NATIONAL DE LA SANTE ET DE LA SANTE ET DE …, priority 2010, dated 2015)
